Laboratory results taken from ChEMBL document CHEMBL1201862, “PubChem BioAssay data set” (2004).
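Where inhibition never reached the appropriate level, the endpoint shown equals the highest concentration tested. Otherwise, values were interpolated linearly from a five-concentration, 48-hour dose response in 96-well plates. Abbreviation: GI50, concentration required for 50% inhibition of growth.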 Calls of active or inactive are those of the source. No stated cut-off is given here; in the data, active = GI50 up to about 1.1 µM and inactive = higher.

Tests used:
Experiment in all cases: DTP human tumour cell line panel, 48 h
A549 = test system: A549
U-251 = test system: U-251
MOLT-4 = test system: MOLT-4
OVCAR-8 = test system: OVCAR-8
MDA-MB-231 = test system: MDA-MB-231
TK-10 = test system: TK-10
RPMI-8226 = test system: RPMI-8226
SR = test system: SR
PC-3 = test system: PC-3
K562 = test system: K562
HOP-62 = test system: HOP-62
SNB-19 = test system: SNB-19
UACC-257 = test system: UACC-257
NCI-H522 = test system: NCI-H522
IGROV-1 = test system: IGROV-1
DU-145 = test system: DU-145
HOP-92 = test system: HOP-92
SNB-75 = test system: SNB-75
HT-29 = test system: HT-29
HCT-116 = test system: HCT-116
786-0 = test system: 786-0
SK-MEL-28 = test system: SK-MEL-28
MDA-N = test system: MDA-N
UACC-62 = test system: UACC-62
ACHN = test system: ACHN
M14 = test system: M14
SW-620 = test system: SW-620
SF-268 = test system: SF-268
HL-60 = test system: HL-60
HCT-15 = test system: HCT-15
MCF7 = test system: MCF7
UO-31 = test system: UO-31
KM12 = test system: KM12
EKVX = test system: EKVX
T47D = test system: T47D
OVCAR-5 = test system: OVCAR-5
MDA-MB-435 = test system: MDA-MB-435
SK-OV-3 = test system: SK-OV-3
Hs-578T = test system: Hs-578T
SF-295 = test system: SF-295
LOX IMVI = test system: LOX IMVI
SK-MEL-2 = test system: SK-MEL-2
SF-539 = test system: SF-539
NCI-H460 = test system: NCI-H460
OVCAR-3 = test system: OVCAR-3
A498 = test system: A498
SN12C = test system: SN12C
OVCAR-4 = test system: OVCAR-4
HCC 2998 = test system: HCC 2998
NCI/ADR-RES = test system: NCI/ADR-RES
CCRF-CEM = test system: CCRF-CEM
COLO 205 = test system: COLO 205
SK-MEL-5 = test system: SK-MEL-5
CAKI-1 = test system: CAKI-1
RXF 393 = test system: RXF 393
Malme-3M = test system: Malme-3M

Measured: GI50

COC(=O)C1CCC(=O)N1C(c1cc(OC)c(OC)c(OC)c1)c1cc(OC)c(OC)c(OC)c1 (stereo unspecified)
> 100 µM: HCT-15
inactive: A549 > 100 µM | U-251 > 100 µM | MOLT-4 > 100 µM | OVCAR-8 > 100 µM | MDA-MB-231 > 100 µM | TK-10 > 100 µM | RPMI-8226 > 100 µM | SR > 100 µM | PC-3 > 100 µM | K562 > 100 µM | HOP-62 > 100 µM | SNB-19 > 100 µM | UACC-257 > 100 µM | NCI-H522 > 100 µM | IGROV-1 94.6 µM | DU-145 > 100 µM | HOP-92 > 100 µM | SNB-75 > 100 µM | HT-29 > 100 µM | HCT-116 > 100 µM | 786-0 > 100 µM | SK-MEL-28 > 100 µM | MDA-N > 100 µM | UACC-62 > 100 µM | ACHN > 100 µM | M14 > 100 µM | SW-620 > 100 µM | SF-268 > 100 µM | HL-60 > 100 µM | MCF7 > 100 µM | UO-31 > 100 µM | KM12 > 100 µM | EKVX > 100 µM | T47D > 100 µM | OVCAR-5 > 100 µM | MDA-MB-435 > 100 µM | SK-OV-3 > 100 µM | Hs-578T > 100 µM | SF-295 > 100 µM | LOX IMVI > 100 µM | SK-MEL-2 > 100 µM | SF-539 > 100 µM | NCI-H460 > 100 µM | OVCAR-3 > 100 µM | A498 > 100 µM | SN12C > 100 µM

C[n+]1c(-c2ccc(/C=N/N=C/c3ccc(-c4cn5ccccc5[n+]4C)cc3)cc2)cn2ccccc21
> 100 µM: HCT-15
inactive: A549 > 100 µM | U-251 > 100 µM | OVCAR-4 > 100 µM | MOLT-4 > 100 µM | OVCAR-8 > 100 µM | MDA-MB-231 > 100 µM | TK-10 > 100 µM | RPMI-8226 > 100 µM | SR > 100 µM | HCC 2998 > 100 µM | PC-3 > 100 µM | K562 > 100 µM | HOP-62 > 100 µM | SNB-19 > 100 µM | UACC-257 > 100 µM | NCI-H522 > 100 µM | IGROV-1 > 100 µM | SNB-75 > 100 µM | NCI/ADR-RES > 100 µM | HT-29 > 100 µM | HCT-116 > 100 µM | 786-0 > 100 µM | SK-MEL-28 > 100 µM | MDA-N > 100 µM | ACHN > 100 µM | M14 > 100 µM | SW-620 > 100 µM | SF-268 > 100 µM | HL-60 > 100 µM | CCRF-CEM > 100 µM | MCF7 > 100 µM | COLO 205 > 100 µM | UO-31 > 100 µM | KM12 > 100 µM | SK-MEL-5 > 100 µM | EKVX > 100 µM | T47D > 100 µM | OVCAR-5 > 100 µM | MDA-MB-435 > 100 µM | SK-OV-3 > 100 µM | Hs-578T > 100 µM | SF-295 > 100 µM | SF-539 > 100 µM | NCI-H460 > 100 µM | SN12C > 100 µM

OC(c1cc(-c2ccc(C(F)(F)F)cc2)nc(C(F)(F)F)c1)C1CCCCN1 (stereo unspecified) [ENPIROLINE PHOSPHATE]
2.18 µM: HCT-15
inactive: U-251 1.88 µM | OVCAR-4 1.87 µM | MOLT-4 1.86 µM | RPMI-8226 2.61 µM | SR 2.33 µM | HCC 2998 1.69 µM | PC-3 2.49 µM | CAKI-1 5.53 µM | UACC-257 2.03 µM | NCI-H522 1.69 µM | IGROV-1 1.73 µM | NCI/ADR-RES 2.62 µM | HT-29 1.95 µM | RXF 393 1.78 µM | HCT-116 2 µM | 786-0 1.89 µM | MDA-N 1.67 µM | UACC-62 1.78 µM | Malme-3M 1.78 µM | M14 1.55 µM | SW-620 1.85 µM | HL-60 2.01 µM | CCRF-CEM 1.87 µM | MCF7 1.8 µM | COLO 205 1.82 µM | KM12 1.87 µM | MDA-MB-435 1.86 µM | SK-OV-3 2.3 µM | LOX IMVI 1.73 µM | SK-MEL-2 2.02 µM | NCI-H460 2.08 µM | A498 2.24 µM
